{"source": "patent US8039505B2", "about": "“Compounds for modulating T-cells” (University of Utah Research Foundation, priority 2007, dated 2011)", "test": "Pharmacokinetics in male Swiss Albino mouse, intravenous and oral (LC-MS/MS of plasma)", "assay_type": "in vivo", "experimental": "The pharmacokinetics of 1H-indole-3-carbaldehyde quinolin-8-ylhydrazone (Compound C3) was evaluated following intravenous (3 mg/kg) and oral (15 mg/kg) solution administration of 1H-indole-3-carbaldehyde quinolin-8-ylhydrazone in male Swiss Albino mouse. The effect of the Test Item, 1H-indole-3-carbaldehyde quinolin-8-ylhydrazone on complete blood count (CBC) was also evaluated. Pharmacokinetic phase consisted of two groups, Group 1 and Group 2. Animals in Group 1 were given intravenous bolus dose in a vehicle containing 5% N,N-dimethylacetamide, 5% CREMOPHOR™ EL and 90% Dextrose solution (5% w/v) and those in Group 2 were given oral solution dose in a vehicle, the composition of which was same as that of intravenous formulation. In addition, the effect of Test Item on complete blood count was evaluated following intravenous and oral dose administration along with its vehicle controls. A total of four groups were used each with 6 mice.\nFrom the pharmacokinetic group, predose samples were collected from 3 animals in each group. Following dose administration terminal blood samples were collected at each of the following time points (in triplicate): 0.083 (only for intravenous), 0.25, 0.5, 1, 2, 4, 8, 12 and 24 hours. At each time point, approximately 500 μL of whole blood was withdrawn from the retro orbital sinus and collected in labeled tubes containing dipotassium EDTA as anticoagulant (20 μL of 200 mM K2 EDTA solution per mL of blood). Plasma was separated by centrifuging the whole blood at about 2500 g for 10 minutes at 4° C. within 1 h of sample collection. Separated plasma was stored below minus 50° C. until bioanalysis. A sensitive LC-MS/MS method was used for the quantitation of 1H-indole-3-carbaldehyde quinolin-8-ylhydrazone. The lower limit of quantitation was 1.04 ng/mL. For CBC evaluation, approximately 500 μL of blood was collected in labeled tubes containing dipotassium EDTA as anticoagulant (10 […]/mL of blood) after 48 h of dose administration from all animals.\nA total of 57 mice were divided into an intravenous dose group of 30 mice (Group 1) and oral dose group of 27 mice (Group 2). Animals in Group 1 received intravenous bolus dose via tail vein at 3 mg/kg and animals in Group 2 received oral solution dose via gavage at 15 mg/kg. Three animals were administered the dose for each time point (intravenous: 10 time points; Oral: 9 time points). Terminal blood samples were collected from each mouse under light ether anesthesia and plasma was separated.\nAnimals in Group 1 were administered an intravenous bolus dose via the tail vein (dosing volume: 6 mL/kg). Animals in Group 2 received oral dose by gavage with an oral dosing needle (dosing volume: 10 mL/kg). Animals in the CBC evaluation group were treated same as above except the animals in control group received vehicle instead of formulation.\nPharmacokinetic group: Predose samples were collected from 3 animals in each group. Following dose administration terminal blood samples were collected at each of the following time points (in triplicate): 0.083 (only for intravenous), 0.25, 0.5, 1, 2, 4, 8, 12 and 24 hours. For each time point, approximately 500 μL of whole blood was withdrawn from the retro orbital sinus and collected in labeled tubes containing dipotassium EDTA as anticoagulant (20 μL of 200 mM K2 EDTA solution per mL of blood). Plasma was separated by centrifuging the whole blood at about 2500 g for 10 minutes at 4° C. within 1 h of sample collection. Separated plasma was stored below minus 50° C. until bioanalysis.\nAn LC-MS/MS method was developed and employed for the quantitation of 1H-indole-3-carbaldehyde quinolin-8-ylhydrazone in the mouse plasma samples. The samples were prepared for analysis following liquid-liquid extraction using amodiaquin as internal standard. The lower limit of quantitation was 1.04 ng/mL.\nPharmacokinetic parameters were calculated using non-compartmental analysis tool of WINNONLIN™ Enterprise software (Version 5.1.1). […]", "key": {"[1]": {"conditions": "male, Swiss Albino, mouse, plasma, iv, 3 mg/kg, mouse, intravenous bolus 3 mg/kg, N = 3, read-out: Mean plasma concentration"}, "[2]": {"conditions": "male, Swiss Albino, mouse, plasma, iv, 3 mg/kg, mouse, intravenous bolus 3 mg/kg, individual mice, LLOQ 1.04 ng/mL, read-out: Individual plasma concentration"}, "[3]": {"conditions": "male, Swiss Albino, mouse, plasma, oral, 15 mg/kg, mouse, oral solution 15 mg/kg, N = 3, read-out: Mean plasma concentration"}, "[4]": {"conditions": "male, Swiss Albino, plasma, mouse, IV 3 mg/kg"}, "[5]": {"conditions": "male, Swiss Albino, plasma, mouse, oral solution 15 mg/kg"}}, "note": "Where two headings read alike, the source gives them in different places."}
{"smiles": "C(=NNc1cccc2cccnc12)c1c[nH]c2ccccc12", "note": "[Compound C3, 1H-indole-3-carbaldehyde quinolin-8-ylhydrazone]", "values": [{"measurement": "concentration at 0.5 h", "setting": "male, Swiss Albino, mouse, plasma, iv, 3 mg/kg, intravenous bolus 3 mg/kg, N = 3", "value": 292, "unit": "ng/mL"}, {"measurement": "concentration at 0.083 h", "setting": "male, Swiss Albino, mouse, plasma, iv, 3 mg/kg, mouse plasma, IV 3 mg/kg, 0.083 h sample, read-out: Initial conc. (repeat analysis)", "value": 47.3, "unit": "ng/mL"}, {"measurement": "concentration at 0.083 h", "setting": "male, Swiss Albino, mouse, plasma, iv, 3 mg/kg, mouse plasma, IV 3 mg/kg, 0.083 h sample, read-out: Repeated conc. (repeat analysis)", "value": 75.6, "unit": "ng/mL"}, {"measurement": "concentration at 0.25 h", "setting": "male, Swiss Albino, mouse, plasma, iv, 3 mg/kg, mouse plasma, IV 3 mg/kg, 0.25 h samples, read-out: Initial conc. (repeat analysis)", "value": 130, "unit": "ng/mL"}, {"measurement": "concentration at 0.25 h", "setting": "male, Swiss Albino, mouse, plasma, iv, 3 mg/kg, mouse plasma, IV 3 mg/kg, 0.25 h samples, read-out: Repeated conc. (repeat analysis)", "value": 200, "unit": "ng/mL"}, {"measurement": "half-life", "setting": "male, Swiss Albino, mouse, plasma, iv, 3 mg/kg, mouse, IV 3 mg/kg, read-out: T1/2 (converted)", "value": 1.67, "unit": "h"}, {"measurement": "half-life", "setting": "male, Swiss Albino, mouse, plasma, iv, 3 mg/kg, mouse, following intravenous administration 3 mg/kg, read-out: Half-life (converted)", "value": "~1.7", "unit": "h"}, {"measurement": "concentration at 0.083 h", "setting": "male, Swiss Albino, mouse, plasma, iv, 3 mg/kg, mouse, intravenous bolus 3 mg/kg, 0.083 h, N = 2, read-out: Mean plasma concentration", "value": 1690, "unit": "ng/mL"}, {"measurement": "concentration at 0.25 h", "setting": "male, Swiss Albino, mouse, plasma, iv, 3 mg/kg, mouse, intravenous bolus 3 mg/kg, 0.25 h, N = 3, read-out: Mean plasma concentration", "value": 244, "unit": "ng/mL"}, {"measurement": "concentration at 0.25 h", "setting": "male, Swiss Albino, mouse, plasma, iv, 3 mg/kg, mouse, intravenous bolus 3 mg/kg, 0.25 h, individual mice, LLOQ 1.04 ng/mL, read-out: Individual plasma concentration", "value": 200, "unit": "ng/mL"}, {"measurement": "concentration at 1 h", "setting": "[1]", "value": 147, "unit": "ng/mL"}, {"measurement": "concentration at 1 h", "setting": "[2]", "value": 116, "unit": "ng/mL"}, {"measurement": "concentration at 2 h", "setting": "[1]", "value": 65.2, "unit": "ng/mL"}, {"measurement": "concentration at 2 h", "setting": "[2]", "value": 71.9, "unit": "ng/mL"}, {"measurement": "concentration at 4 h", "setting": "[1]", "value": 35.9, "unit": "ng/mL"}, {"measurement": "concentration at 4 h", "setting": "[2]", "value": 42.4, "unit": "ng/mL"}, {"measurement": "concentration at 8 h", "setting": "[1]", "value": 8.95, "unit": "ng/mL"}, {"measurement": "concentration at 8 h", "setting": "[2]", "value": 10.1, "unit": "ng/mL"}, {"measurement": "concentration at 12 h", "setting": "[1]", "value": 1.29, "unit": "ng/mL"}, {"measurement": "concentration at 12 h", "setting": "male, Swiss Albino, mouse, plasma, iv, 3 mg/kg, mouse, intravenous bolus 3 mg/kg, individual mice, BLQ = below LLOQ 1.04 ng/mL, read-out: Individual plasma concentration", "value": 1.68, "unit": "ng/mL"}, {"measurement": "bioavailability", "setting": "male, Swiss Albino, mouse, plasma, oral, 15 mg/kg, mouse, oral 15 mg/kg vs IV 3 mg/kg, read-out: F, absolute oral solution bioavailability", "value": "~26", "unit": "%"}, {"measurement": "concentration at 0.25 h", "setting": "male, Swiss Albino, mouse, plasma, oral, 15 mg/kg, mouse, oral solution 15 mg/kg, 0.25 h, N = 3, read-out: Mean plasma concentration", "value": 140, "unit": "ng/mL"}, {"measurement": "concentration at 1 h", "setting": "[3]", "value": 199, "unit": "ng/mL"}, {"measurement": "concentration at 2 h", "setting": "[3]", "value": 96.5, "unit": "ng/mL"}, {"measurement": "concentration at 4 h", "setting": "[3]", "value": 146, "unit": "ng/mL"}, {"measurement": "concentration at 8 h", "setting": "[3]", "value": 75.3, "unit": "ng/mL"}, {"measurement": "concentration at 8 h", "setting": "male, Swiss Albino, mouse, plasma, oral, 15 mg/kg, mouse, oral solution 15 mg/kg, individual mice, LLOQ 1.04 ng/mL, read-out: Individual plasma concentration", "value": 76.7, "unit": "ng/mL"}, {"measurement": "concentration at 12 h", "setting": "[3]", "value": 8.91, "unit": "ng/mL"}, {"measurement": "concentration at 0.5 h", "setting": "male, Swiss Albino, mouse, plasma, oral, 15 mg/kg, oral solution 15 mg/kg, N = 3", "value": 148, "unit": "ng/mL"}, {"measurement": "half-life", "setting": "male, Swiss Albino, mouse, plasma, po, 15 mg/kg, mouse, oral solution 15 mg/kg, read-out: T1/2 (converted)", "value": 1.98, "unit": "h"}, {"measurement": "AUC", "setting": "[4]", "value": 913, "unit": "ng·h/mL"}, {"measurement": "AUC(0-t)", "setting": "[4]", "value": 909, "unit": "ng·h/mL"}, {"measurement": "Cmax", "setting": "[4]", "value": 1690, "unit": "ng/mL"}, {"measurement": "clearance", "setting": "[4]", "value": 54.8, "unit": "mL/min/kg"}, {"measurement": "Tmax", "setting": "male, Swiss Albino, plasma, mouse, IV 3 mg/kg, first sampling point", "value": 0.083, "unit": "h"}, {"measurement": "Vd", "setting": "male, Swiss Albino, plasma, mouse, IV 3 mg/kg, read-out: Vds. (volume of distribution)", "value": 4.28, "unit": "L/kg"}, {"measurement": "AUC", "setting": "[5]", "value": 1170, "unit": "ng·h/mL"}, {"measurement": "AUC(0-t)", "setting": "[5]", "value": 1140, "unit": "ng·h/mL"}, {"measurement": "Cmax", "setting": "[5]", "value": 199, "unit": "ng/mL"}, {"measurement": "Tmax", "setting": "[5]", "value": 1, "unit": "h"}, {"measurement": "Accepted conc. (repeat analysis)", "setting": "mouse plasma, IV 3 mg/kg, 0.083 h sample", "value": 75.62, "unit": "c ng/mL"}]}
